Results from patent US7772183B2 (Bristol-Myers Squibb Company, priority 2005, dated 2010).
Like-named read-outs stand apart in the source and are kept apart here.

Tested on: HCV replicon in HUH-7 cells
Test: HCV replicon FRET assay
Format: cell-based, Hepatitis C virus (strain 1b)
Conditions: Hepatitis C virus
In short: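 HUH-7 cells stably carrying a genotype 1b subgenomic HCV replicon (NS3–NS5B) treated with compound for 4 days at 37° C, 0.5% DMSO final. Cytotoxicity (CC50) read by alamar Blue; cells then lysed with 10 μM FRET HCV protease peptide substrate and kinetically read (340/490 nm) for EC50.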

SMILES: CC(C)(C)OC(=O)N[C@H]1CCCCC/C=C\[C@@H]2C[C@@]2(C(=O)NS(=O)(=O)C2CC2)NC(=O)[C@@H]2C[C@@H](OC(=O)c3ccc(C#N)cc3)CN2C1=O [Compound 26, 18-(4-cyanobenzoyloxy)-14-tert-butoxycarbonylamino-4-cyclopropylsulfonylaminocarbonyl-2,15-dioxo-3,16-diazatricyclo-[14.3.0.0^4,6]-nonadec-7-ene]
- EC50 (96 h, HUH-7 replicon cells, 4 days, read-out: EC50 in the replicon FRET assay): 7.3 nM
- EC50 (Huh-7, HCV replicon, for compounds tested, read-out: EC50 Range): < 100 nM
